Assays:
Type in all cases: biochemical
[1] = target: T1, Recombinant human calpain I (Homo sapiens, UniProt P07384); assay: Inhibition of calpain I (Succ-Leu-Tyr-MNA hydrolysis); settings: Tables 2-4; pH 7.5
T1 construct: made in house
T1 sequence (P07384 1-714): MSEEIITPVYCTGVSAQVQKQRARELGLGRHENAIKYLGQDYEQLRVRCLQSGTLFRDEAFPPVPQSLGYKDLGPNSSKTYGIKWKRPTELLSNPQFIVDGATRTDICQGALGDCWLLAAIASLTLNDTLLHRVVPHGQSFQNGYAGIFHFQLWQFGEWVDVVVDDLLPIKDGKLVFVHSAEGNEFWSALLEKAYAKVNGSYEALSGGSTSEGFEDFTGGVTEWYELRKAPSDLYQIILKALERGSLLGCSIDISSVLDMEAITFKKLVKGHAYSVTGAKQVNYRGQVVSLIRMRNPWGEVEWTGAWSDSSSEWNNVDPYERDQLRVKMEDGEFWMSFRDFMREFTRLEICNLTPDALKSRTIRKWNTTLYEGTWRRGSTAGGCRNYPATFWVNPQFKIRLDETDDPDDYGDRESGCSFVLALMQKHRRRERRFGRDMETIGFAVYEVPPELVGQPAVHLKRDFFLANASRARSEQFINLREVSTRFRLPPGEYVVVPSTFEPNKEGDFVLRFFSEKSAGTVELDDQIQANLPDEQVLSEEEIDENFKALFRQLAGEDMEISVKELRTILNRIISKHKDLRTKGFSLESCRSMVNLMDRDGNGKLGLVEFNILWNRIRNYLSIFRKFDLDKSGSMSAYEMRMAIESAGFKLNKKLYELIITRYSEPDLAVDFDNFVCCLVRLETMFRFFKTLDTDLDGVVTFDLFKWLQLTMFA
Protocol: (§1) To evaluate inhibitory activity, stock solutions (40 times concentrated) of each compound to be tested were prepared in 100% anhydrous DMSO and 5 μl of each inhibitor preparation was aliquoted into each of three wells of a 96-well plate. Recombinant human calpain I, prepared by the method of Meyer et al. (Biochem. J. 1996, 314: 511-519), was diluted into assay buffer (i.e., 50 mM Tris, 50 mM NaCl, 1 mM EDTA, 1 mM EGTA, and 5 mM β-mercaptoethanol, pH 7.5, including 0.2 mM Succ-Leu-Tyr-MNA), and 175 μl was aliquoted into the same wells containing the independent inhibitor stocks as well as to positive control wells containing 5 μl DMSO, but no compound. To start the reaction, 20 μl of 50 mM CaCl2 in assay buffer was added to all wells of the plate, excepting three, which were used as background signal baseline controls. Substrate hydrolysis was monitored every 5 minutes for a total of 30 minutes. Substrate hydrolysis in the absence of inhibitor was linear for up to 15 minutes.
(§2) Inhibition of calpain I activity was calculated as the percent decrease in the rate of substrate hydrolysis in the presence of inhibitor relative to the rate in its absence. Comparison between the inhibited and control rates was made within the linear range for substrate hydrolysis. The IC50 S of inhibitors (concentration yielding 50% inhibition) were determined from the percent decrease in rates of substrate hydrolysis in the presence of five to seven different concentrations of the test compound. The results were plotted as percent inhibition versus log inhibitor concentration, and the IC50 was calculated by fitting the data to the four-parameter logistic equation shown below using the program GraphPad Prism (GraphPad Software, Inc., San Diego, Calif.).
The parameters a, b, c, and d are defined as follows: a is % inhibition in the absence of inhibitor, b is the slope, c is the IC50, and d is the % inhibition at an infinite concentration of inhibitor.

cathepsin B = target: T2, cathepsin B (Homo sapiens, UniProt P07858); assay: Inhibition of cathepsin B (Cbz-Phe-Arg-AMC hydrolysis); settings: Table 6; pH 6.0; read-out: Cath. B IC50
T2 construct: purchased Calbiochem 219364
Protocol: as §1, §2
Additionally, the order of reagents added to the plate was altered because the enzyme is consitutively active. Following inhibitor addition to the plates, appropriate 2× concentrated stock dilutions of the enzyme preparations were made in assay buffer and 100 μl added to each well. The assay was initiated by addition of 100 μl of 2× concentrated stock dilution of substrate in assay buffer. Substrate hydrolysis was monitored using a Fluoriskan II (ex=390 nm; em=460 nm).

α-chymotrypsin = target: T3, α-chymotrypsin (Bos taurus, UniProt P00766); assay: Inhibition of serine protease α-chymotrypsin (Succ-Ala-Ala-Pro-Phe-AMC hydrolysis); settings: Table 6; pH 7.5
T3 construct: purchased Sigma Chem. Co. C-3142
Protocol: as §1, §2
Additionally, because α-chymotrypsin is not a calcium sensitive enzyme and is constitutively active, following addition of inhibitor stocks to the 96 well plates, 100 μl of a 2-fold concentrated stock of enzyme in dilution buffer was first added and the reaction was started by addition of 100 μl of a 2-fold concentrated stock of substrate in assay buffer. Substrate hydrolysis was monitored every 5 minutes up to 30 minutes using a Fluoroskan II (ex=390 nm em=460 nm).

SMILES | IC50 [1] [µM] | IC50 (cathepsin B) [µM] | IC50 (α-chymotrypsin) [µM]
O=C(NCCCNS(=O)(=O)c1ccccc1)C(=O)C(Cc1ccccc1)NC(=O)c1cc(C#Cc2ccccc2)nc2ccccc12 (stereo not shown) [Example 100] | 0.055 | 0.36 | 0.036
O=C(NOCc1ccccc1)C(=O)C(Cc1ccccc1)NC(=O)c1cc(C#Cc2ccccc2)nc2ccccc12 (stereo not shown) [Example 104] | 0.06 | 0.33 | 1.16
O=C(NCCNS(=O)(=O)c1ccc(-c2ccccn2)s1)C(=O)C(Cc1ccccc1)NC(=O)c1cc(C#Cc2ccccc2)nc2ccccc12 (stereo not shown) [Example 86] |  | 1.03 | 0.475
CCONC(=O)C(=O)C(Cc1ccccc1)NC(=O)c1cc(C#Cc2ccccc2)nc2ccccc12 (stereo not shown) [Example 103] | 0.065 | 0.435 | 0.38
O=C(NCCNS(=O)(=O)c1ccc([N+](=O)[O-])cc1)C(=O)C(Cc1ccccc1)NC(=O)c1cc(C#Cc2ccccc2)nc2ccccc12 (single isomer, unassigned) [Example 84] |  | 0.348 | 0.014
O=C(NCCNS(=O)(=O)c1ccccc1)C(=O)[C@H](Cc1ccccc1)NC(=O)c1cc(C#Cc2ccccc2)nc2ccccc12 [Example 96] | 0.029 | 0.375 | 0.066
